ChEMBL document CHEMBL5726074, “Histone demethylase inhibitors” (2017)

Key:
[1] = target: Lysine-specific demethylase 5A (Homo sapiens, UniProt P29375); test: Enzymatic Assay: The enzymatic assay of Jarid1A activity is based upon Time Resolved-Fluorescence Resonance Energy Transfer (TR-FRET) detection. The ability of test compounds to inhibit the activity of Jarid1A was determined in 384-well plate format under the following reaction conditions: 1 nM Jarid1A, 300 nM H3K4me3-biotin labeled peptide (Anaspec cat #64357), 2 μM alpha-ketoglutaric acid in …
[2] = target: Lysine-specific demethylase 5B (Homo sapiens, UniProt Q9UGL1); test: Enzymatic Assay: The ability of test compounds to inhibit the activity of Jarid1B was determined in 384-well plate format under the following reaction conditions: 0.8 nM Jarid1B, 300 nM H3K4me3-biotin labeled peptide (Anaspec cat #64357), 2 μM alpha-ketoglutaric acid in assay buffer of 50 mM HEPES, pH7.3, 0.005% Brij35, 0.5 mM TCEP, 0.2 mg/ml BSA, 50 μM sodium L-ascorbate, and 2 μM ammonium iron(II) sulfate. Reaction product was determined quantitatively by TR-FRET after the addition of detection reagent Phycolink Streptavidin-allophycocyanin (Prozyme) and Europium-anti-mono- or di-methylated histone H3 lysine 4 (H3K4me1-2) antibody (PerkinElmer) in the presence of 5 mM EDTA in LANCE detection buffer (PerkinElmer) at a final concentration of 25 nM and 1 nM, respectively.The assay reaction was initiated by the following: 2 μl of the mixture of 900 nM H3K4me3-biotin labeled peptide and 6 μM alpha-ketoglutaric acid with 2 μl of 11-point serial diluted inhibitor in 3% DMSO was added to each well of the plate, followed by the addition of 2 μl of 2.4 nM Jarid1B to initiate the reaction. The reaction mixture was incubated at room temperature for 30 minutes, and terminated by the addition of 6 μl of 5 mM EDTA in LANCE detection buffer containing 50 nM Phycolink Streptavidin-allophycocyanin and 2 nM Europium-anti-H3K4me1-2 antibody. […]
[3] = target: T1, Lysine-specific demethylase 4C (Homo sapiens, UniProt Q9H3R0); test: Enzymatic Assay: The ability of test compounds to inhibit the activity of JMJD2C was determined in 384-well plate format under the following reaction conditions: 0.3 nM JMJD2C, 300 nM H3K9me3-biotin labeled peptide (Anaspec cat #64360), 2 μM alpha-ketoglutaric acid in assay buffer of 50 mM HEPES, pH7.3, 0.005% Brij35, 0.5 mM TCEP, 0.2 mg/ml BSA, 50 μM sodium L-ascorbate, and 2 μM ammonium iron(II) sulfate. Reaction product was determined quantitatively by TR-FRET after the addition of detection reagent Phycolink Streptavidin-allophycocyanin (Prozyme) and Europium-anti-di-methylated histone H3 lysine 9 (H3K9me2) antibody (PerkinElmer) in the presence of 5 mM EDTA in LANCE detection buffer (PerkinElmer) at a final concentration of 50 nM and 1 nM, respectively.The assay reaction was initiated by the following: 2 μl of the mixture of 900 nM H3K9me3-biotin labeled peptide and 6 μM alpha-ketoglutaric acid with 2 μl of 11-point serial diluted inhibitor in 3% DMSO were added to each well of the plate, followed by the addition of 2 μl of 0.9 nM JMJD2C to initiate the reaction. The reaction mixture was incubated at room temperature for 30 minutes, and terminated by the addition of 6 μl of 5 mM EDTA in LANCE detection buffer containing 100 nM Phycolink Streptavidin-allophycocyanin and 2 nM Europium-anti-H3K9me2 antibody. […]
T1 sequence (Q9H3R0 whole entry): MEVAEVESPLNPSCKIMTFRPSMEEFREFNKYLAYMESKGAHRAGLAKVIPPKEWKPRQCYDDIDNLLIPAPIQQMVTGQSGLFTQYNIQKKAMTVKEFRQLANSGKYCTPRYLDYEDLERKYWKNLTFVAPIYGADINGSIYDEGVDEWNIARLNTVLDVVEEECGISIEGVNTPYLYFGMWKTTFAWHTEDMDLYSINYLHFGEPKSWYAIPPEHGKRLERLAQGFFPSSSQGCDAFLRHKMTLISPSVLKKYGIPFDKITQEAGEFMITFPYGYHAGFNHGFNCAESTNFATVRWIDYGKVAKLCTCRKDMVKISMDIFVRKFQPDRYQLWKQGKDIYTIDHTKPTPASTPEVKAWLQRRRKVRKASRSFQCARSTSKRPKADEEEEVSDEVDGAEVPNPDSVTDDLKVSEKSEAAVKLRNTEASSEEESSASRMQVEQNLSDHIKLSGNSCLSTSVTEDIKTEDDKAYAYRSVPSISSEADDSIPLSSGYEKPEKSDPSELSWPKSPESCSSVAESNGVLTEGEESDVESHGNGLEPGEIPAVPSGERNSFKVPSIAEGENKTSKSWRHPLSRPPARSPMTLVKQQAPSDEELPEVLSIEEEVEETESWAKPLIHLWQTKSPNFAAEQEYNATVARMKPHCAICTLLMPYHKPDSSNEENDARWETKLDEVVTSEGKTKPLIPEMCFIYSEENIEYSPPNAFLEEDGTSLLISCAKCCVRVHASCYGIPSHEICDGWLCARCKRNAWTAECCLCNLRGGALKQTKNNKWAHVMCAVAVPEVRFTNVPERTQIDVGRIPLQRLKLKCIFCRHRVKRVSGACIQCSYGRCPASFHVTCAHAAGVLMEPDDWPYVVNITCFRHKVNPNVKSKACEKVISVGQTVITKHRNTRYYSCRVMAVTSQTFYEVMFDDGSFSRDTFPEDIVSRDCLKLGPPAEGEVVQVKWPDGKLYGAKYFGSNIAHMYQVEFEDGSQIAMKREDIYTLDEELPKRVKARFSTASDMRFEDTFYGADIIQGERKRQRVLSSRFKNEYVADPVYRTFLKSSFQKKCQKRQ

Measured: IC50

Sequence of Lysine-specific demethylase 5A (P29375 whole entry): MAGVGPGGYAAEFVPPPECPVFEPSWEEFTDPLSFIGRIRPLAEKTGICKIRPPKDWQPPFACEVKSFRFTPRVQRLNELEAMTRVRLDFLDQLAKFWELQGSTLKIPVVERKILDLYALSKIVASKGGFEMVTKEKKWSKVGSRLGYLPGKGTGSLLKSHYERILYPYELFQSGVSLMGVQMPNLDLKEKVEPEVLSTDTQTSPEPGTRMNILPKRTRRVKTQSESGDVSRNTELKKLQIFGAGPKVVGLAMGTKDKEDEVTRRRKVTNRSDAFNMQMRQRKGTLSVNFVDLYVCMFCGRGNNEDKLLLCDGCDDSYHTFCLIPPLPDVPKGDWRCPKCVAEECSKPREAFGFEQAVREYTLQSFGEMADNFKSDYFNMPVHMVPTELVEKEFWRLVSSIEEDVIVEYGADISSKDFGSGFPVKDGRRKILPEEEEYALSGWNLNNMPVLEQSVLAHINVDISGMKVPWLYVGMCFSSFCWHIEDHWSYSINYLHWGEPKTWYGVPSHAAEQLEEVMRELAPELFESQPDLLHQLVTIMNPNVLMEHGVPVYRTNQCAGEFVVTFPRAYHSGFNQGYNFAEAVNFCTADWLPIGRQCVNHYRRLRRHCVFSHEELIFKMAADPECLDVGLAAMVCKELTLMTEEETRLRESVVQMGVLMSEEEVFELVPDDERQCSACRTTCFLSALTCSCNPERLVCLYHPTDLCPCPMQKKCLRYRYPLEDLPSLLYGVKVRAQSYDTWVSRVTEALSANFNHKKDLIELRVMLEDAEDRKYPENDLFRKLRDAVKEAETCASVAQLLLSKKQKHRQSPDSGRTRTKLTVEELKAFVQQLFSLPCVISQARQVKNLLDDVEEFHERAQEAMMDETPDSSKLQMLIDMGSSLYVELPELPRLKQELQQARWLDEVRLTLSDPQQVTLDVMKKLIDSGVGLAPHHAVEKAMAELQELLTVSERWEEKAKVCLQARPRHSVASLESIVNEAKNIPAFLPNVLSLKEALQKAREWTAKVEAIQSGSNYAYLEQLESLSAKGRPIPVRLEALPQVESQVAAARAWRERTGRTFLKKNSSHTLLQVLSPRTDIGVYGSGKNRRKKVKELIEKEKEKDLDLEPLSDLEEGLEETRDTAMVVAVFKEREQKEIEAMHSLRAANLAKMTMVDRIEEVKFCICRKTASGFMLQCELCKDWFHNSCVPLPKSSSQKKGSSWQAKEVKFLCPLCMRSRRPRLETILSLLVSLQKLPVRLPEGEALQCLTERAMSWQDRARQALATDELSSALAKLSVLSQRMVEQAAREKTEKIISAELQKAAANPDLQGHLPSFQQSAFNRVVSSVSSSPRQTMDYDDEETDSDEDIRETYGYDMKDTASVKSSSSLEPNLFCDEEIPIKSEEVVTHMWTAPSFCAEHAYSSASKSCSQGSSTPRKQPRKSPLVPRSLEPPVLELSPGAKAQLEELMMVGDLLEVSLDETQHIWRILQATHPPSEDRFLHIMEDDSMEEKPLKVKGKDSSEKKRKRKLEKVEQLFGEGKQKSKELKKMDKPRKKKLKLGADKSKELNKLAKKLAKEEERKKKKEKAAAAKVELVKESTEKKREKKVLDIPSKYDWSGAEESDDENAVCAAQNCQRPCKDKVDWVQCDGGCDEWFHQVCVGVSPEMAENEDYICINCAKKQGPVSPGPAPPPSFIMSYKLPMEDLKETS
Sequence of Lysine-specific demethylase 5B (Q9UGL1 whole entry): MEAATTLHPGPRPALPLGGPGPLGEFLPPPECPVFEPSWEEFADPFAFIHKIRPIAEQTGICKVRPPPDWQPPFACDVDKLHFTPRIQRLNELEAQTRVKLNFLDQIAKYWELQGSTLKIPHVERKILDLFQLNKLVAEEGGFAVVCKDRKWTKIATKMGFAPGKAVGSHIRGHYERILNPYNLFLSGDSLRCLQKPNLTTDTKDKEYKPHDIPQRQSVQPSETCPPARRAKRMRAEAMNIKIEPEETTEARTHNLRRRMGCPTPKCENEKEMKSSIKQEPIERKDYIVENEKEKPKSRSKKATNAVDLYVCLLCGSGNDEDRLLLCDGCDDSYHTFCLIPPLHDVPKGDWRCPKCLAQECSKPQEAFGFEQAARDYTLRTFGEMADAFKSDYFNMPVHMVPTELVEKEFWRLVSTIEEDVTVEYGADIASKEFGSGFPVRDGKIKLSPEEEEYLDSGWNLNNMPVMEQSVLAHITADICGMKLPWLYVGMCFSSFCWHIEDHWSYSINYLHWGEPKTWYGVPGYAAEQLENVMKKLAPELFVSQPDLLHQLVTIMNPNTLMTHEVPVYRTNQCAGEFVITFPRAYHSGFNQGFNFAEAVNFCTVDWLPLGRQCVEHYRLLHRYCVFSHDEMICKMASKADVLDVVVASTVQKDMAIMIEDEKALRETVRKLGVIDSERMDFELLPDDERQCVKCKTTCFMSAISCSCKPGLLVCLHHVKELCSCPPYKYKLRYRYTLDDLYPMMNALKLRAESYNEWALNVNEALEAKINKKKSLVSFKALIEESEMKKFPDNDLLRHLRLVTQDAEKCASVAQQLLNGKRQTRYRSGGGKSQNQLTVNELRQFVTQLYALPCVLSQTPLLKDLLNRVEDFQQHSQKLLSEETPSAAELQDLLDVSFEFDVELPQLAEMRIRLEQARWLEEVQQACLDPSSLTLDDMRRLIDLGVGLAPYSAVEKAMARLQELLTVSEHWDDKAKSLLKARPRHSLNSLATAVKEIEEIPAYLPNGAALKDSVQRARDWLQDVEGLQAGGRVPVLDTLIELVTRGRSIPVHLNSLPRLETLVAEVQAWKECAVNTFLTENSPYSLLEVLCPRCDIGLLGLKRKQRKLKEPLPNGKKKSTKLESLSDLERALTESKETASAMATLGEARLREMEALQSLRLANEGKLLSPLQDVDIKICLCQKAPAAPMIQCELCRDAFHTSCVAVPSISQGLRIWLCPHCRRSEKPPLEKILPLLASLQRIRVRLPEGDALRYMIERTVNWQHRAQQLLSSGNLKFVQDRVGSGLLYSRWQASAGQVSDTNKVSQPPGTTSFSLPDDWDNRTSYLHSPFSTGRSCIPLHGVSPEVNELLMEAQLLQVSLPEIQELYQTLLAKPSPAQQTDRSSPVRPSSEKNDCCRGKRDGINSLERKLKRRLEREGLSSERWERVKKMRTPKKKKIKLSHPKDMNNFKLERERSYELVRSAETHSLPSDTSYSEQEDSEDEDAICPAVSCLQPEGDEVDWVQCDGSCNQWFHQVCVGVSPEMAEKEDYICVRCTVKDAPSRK

O=C(O)c1ccncc1NCC1CCc2ccccc21 (stereo not drawn)
< 100 nM: all assays above
